Measured values published in PMC3162300 (Journal of Natural Products, 2011).
Marks after values point to notes of the source that are not given here.

Experiments:
[1] = test system: croton oil-induced ear dermatitis (edema); test: Croton oil-induced mouse ear dermatitis: edematous response
5-LO = target: T1, 5-LO (Homo sapiens, UniProt P09917); assay type: cell-based; settings: read-out: inhibition of leukotriene formation
T1 sequence (P09917 1-674): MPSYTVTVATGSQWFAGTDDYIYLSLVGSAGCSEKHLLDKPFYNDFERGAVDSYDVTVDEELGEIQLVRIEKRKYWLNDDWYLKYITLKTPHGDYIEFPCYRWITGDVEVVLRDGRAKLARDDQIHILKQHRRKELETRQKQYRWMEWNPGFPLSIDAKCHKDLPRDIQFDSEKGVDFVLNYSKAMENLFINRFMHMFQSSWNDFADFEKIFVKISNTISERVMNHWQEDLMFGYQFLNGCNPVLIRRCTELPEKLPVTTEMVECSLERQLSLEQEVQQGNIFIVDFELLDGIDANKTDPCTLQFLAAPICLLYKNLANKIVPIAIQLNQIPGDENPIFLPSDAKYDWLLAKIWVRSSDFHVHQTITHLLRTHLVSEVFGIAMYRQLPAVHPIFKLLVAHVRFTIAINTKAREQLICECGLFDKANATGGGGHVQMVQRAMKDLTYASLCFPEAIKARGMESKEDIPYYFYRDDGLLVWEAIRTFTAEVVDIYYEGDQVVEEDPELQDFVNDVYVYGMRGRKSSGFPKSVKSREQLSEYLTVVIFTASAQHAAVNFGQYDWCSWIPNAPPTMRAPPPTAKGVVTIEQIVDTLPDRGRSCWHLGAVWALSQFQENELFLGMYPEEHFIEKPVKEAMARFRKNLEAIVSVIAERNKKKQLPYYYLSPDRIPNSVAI

[2] = test system: croton oil-induced ear dermatitis (ear tissue histology); test: Histological analysis of ear tissue after croton oil dermatitis
COX-1 = target: T2, COX-1 (Ovis aries, UniProt P05979); test: COX-1 inhibition assay; assay type: biochemical, ram; settings: read-out: inhibition of COX-1
T2 sequence (P05979 25-600): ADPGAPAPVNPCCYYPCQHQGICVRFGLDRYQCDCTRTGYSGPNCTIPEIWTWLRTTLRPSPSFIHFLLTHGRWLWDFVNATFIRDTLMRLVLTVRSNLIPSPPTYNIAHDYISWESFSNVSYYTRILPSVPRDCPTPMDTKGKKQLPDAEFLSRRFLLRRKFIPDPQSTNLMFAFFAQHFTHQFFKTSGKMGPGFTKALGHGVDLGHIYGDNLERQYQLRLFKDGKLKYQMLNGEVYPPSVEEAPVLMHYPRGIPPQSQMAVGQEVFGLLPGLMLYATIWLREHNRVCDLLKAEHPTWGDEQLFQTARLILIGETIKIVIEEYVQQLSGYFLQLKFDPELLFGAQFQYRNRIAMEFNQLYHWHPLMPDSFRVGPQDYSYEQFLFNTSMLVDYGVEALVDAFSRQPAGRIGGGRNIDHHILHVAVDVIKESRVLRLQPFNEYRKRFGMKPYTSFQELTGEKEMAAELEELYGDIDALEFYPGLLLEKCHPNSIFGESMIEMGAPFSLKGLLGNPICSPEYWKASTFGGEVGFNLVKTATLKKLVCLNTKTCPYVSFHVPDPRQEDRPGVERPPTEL

COX-2 = target: T3, COX-2 (Ovis aries, UniProt P79208); test: COX-2 inhibition assay; assay type: biochemical, sheep; settings: read-out: inhibition of COX-2
T3 sequence (P79208 17-603): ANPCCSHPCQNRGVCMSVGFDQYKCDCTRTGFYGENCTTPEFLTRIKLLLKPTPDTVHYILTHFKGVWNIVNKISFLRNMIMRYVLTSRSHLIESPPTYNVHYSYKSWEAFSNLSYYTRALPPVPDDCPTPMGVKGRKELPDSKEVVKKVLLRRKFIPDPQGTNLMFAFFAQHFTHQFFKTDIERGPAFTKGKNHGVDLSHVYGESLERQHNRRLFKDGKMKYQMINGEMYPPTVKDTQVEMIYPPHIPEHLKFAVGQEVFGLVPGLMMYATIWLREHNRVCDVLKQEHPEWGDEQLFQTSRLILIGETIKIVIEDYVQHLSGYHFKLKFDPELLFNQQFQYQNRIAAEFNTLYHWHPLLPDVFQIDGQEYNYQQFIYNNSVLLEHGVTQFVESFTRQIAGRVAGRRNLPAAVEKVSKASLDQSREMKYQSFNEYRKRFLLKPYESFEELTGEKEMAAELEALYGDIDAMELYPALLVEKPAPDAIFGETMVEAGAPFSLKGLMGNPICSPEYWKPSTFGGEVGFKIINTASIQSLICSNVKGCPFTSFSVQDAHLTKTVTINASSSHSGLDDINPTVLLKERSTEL

[3] = DPPH free-radical-scavenging assay; settings: up to 100 μM
[4] = dose giving 50% inhibition of edema, 6 h, topical
[5] = topical dose 0.10 μmol/cm^2, 6 h
[6] = topical dose 0.30 μmol/cm^2, 6 h
[7] = topical dose 1.00 μmol/cm^2, 6 h

Compound	ID50 (μg/cm^2) [1, 4]	ID50 (μmol/cm^2) [1, 4]	edema (mg) mean ± SE [1, 5]	edema (mg) mean ± SE [1, 6]	edema (mg) mean ± SE [1, 7]	inhibition at 50 µM (5-LO)	histological finding in ear tissue ([2]; 0.4 μmol/cm^2, 3-48 h)	inhibition at 50 µM (COX-1)	inhibition at 50 µM (COX-2)	effect in DPPH assay [3]	edema (mg) mean ± SE ([1]; topical dose 0.01 μmol/cm^2, 6 h)	edema (mg) mean ± SE ([1]; topical dose 0.03 μmol/cm^2, 6 h)	histological finding in ear tissue ([2]; 0.04 μmol/cm^2, 3-48 h)
C/C=C/c1ccc2c(c1)C(CO)[C@@H](c1ccc(O)cc1)O2 (stereo in doubt) [compound 4, (2S,3S)-2,3-dihydro-3-hydroxymethyl-2-(4-hydroxyphenyl)-5-(E)-propenylbenzofuran]	118 μg/cm^2	0.42 μmol/cm^2	5.7 ± 0.4 ^a mg	4.4 ± 0.3 ^a mg	1.7 ± 0.2 ^a mg								
COc1cc(O)ccc1-c1cc2cc(CCCO)ccc2o1 [compound 1, 5-(3-hydroxypropyl)-2-(2-methoxy-4-hydroxyphenyl)benzofuran]	134 μg/cm^2		6.0 ± 0.3 ^a mg	4.7 ± 0.3 ^a mg	1.7 ± 0.1 ^a mg	80.2 to 94.6%							
C[C@@H]1[C@H](C)[C@@H](c2ccc(O)cc2)O[C@@H]1c1ccc(O)cc1 [compound 2, (−)-larreatricin]	131 μg/cm^2		5.6 ± 0.3 ^a mg	4.2 ± 0.4 ^a mg	2.3 ± 0.2 ^a mg								
C[C@@H]1[C@H](C)[C@@H](c2ccc(O)cc2)O[C@H]1c1ccc(O)cc1 [compound 3, meso-3,3′-didemethoxynectandrin B]	102 μg/cm^2		5.9 ± 0.3 ^a mg	3.3 ± 0.3 ^a mg	1.9 ± 0.2 ^a mg								
COc1ccc(-c2cc3cc(CCCO)ccc3o2)c(O)c1 [compound 5, 2-(2-hydroxy-4-methoxyphenyl)-5-(3-hydroxypropyl)benzofuran]	107 μg/cm^2		5.2 ± 0.3 ^a mg	3.4 ± 0.2 ^a mg	2.3 ± 0.2 ^a mg	80.2 to 94.6%	general reduction of these vascular and cellular changes due to inflammation						
C/C=C/c1ccc2oc(-c3ccc(O)cc3O)cc2c1 [compound 6, 2-(2,4-dihydroxyphenyl)-5-(E)-propenylbenzofuran]	160 μg/cm^2		5.9 ± 0.3 ^a mg	4.9 ± 0.3 ^a mg	2.5 ± 0.3 ^a mg			57.2 to 83.3%	57.2 to 83.3%				
C/C=C/c1ccc2c(c1)[C@@H](C)[C@H](c1ccc(O)cc1)O2 [compound 7, (+)-conocarpan]	82 μg/cm^2		5.2 ± 0.4 ^a mg	3.8 ± 0.2 ^a mg	1.3 ± 0.1 ^a mg	80.2 to 94.6%	general reduction of these vascular and cellular changes due to inflammation			no effect			
C/C=C/c1ccc2oc(-c3ccc(O)cc3)cc2c1 [compound 8, 2-(4-hydroxyphenyl)-5-(E)-propenylbenzofuran]	110 μg/cm^2		5.9 ± 0.3 ^a mg	4.5 ± 0.3 ^a mg	1.8 ± 0.3 ^a mg			57.2 to 83.3%	57.2 to 83.3%	no effect			
C/C=C/c1ccc2oc(-c3ccc(O)cc3OC)cc2c1 [compound 9, rataniaphenol III]	134 μg/cm^2		6.1 ± 0.2 mg	4.4 ± 0.3 ^a mg	2.1 ± 0.3 ^a mg			57.2 to 83.3%	57.2 to 83.3%				
C/C=C/c1ccc2oc(-c3ccc(OC)cc3O)cc2c1 [compound 10, rataniaphenol I]	160 μg/cm^2		6.2 ± 0.3 mg	4.6 ± 0.3 ^a mg	2.5 ± 0.3 ^a mg								
C/C=C/c1ccc2oc(-c3ccc(O)cc3)c(C)c2c1 [compound 11, rataniaphenol II]	106 μg/cm^2		6.0 ± 0.4 mg	4.0 ± 0.2 ^a mg	1.7 ± 0.2 ^a mg			57.2 to 83.3%	57.2 to 83.3%	no effect			
C[C@]12CCC(=O)C=C1CC[C@@H]1[C@@H]2[C@@H](O)C[C@@]2(C)[C@H]1CC[C@]2(O)C(=O)CO [hydrocortisone, reference compound]	11 μg/cm^2		1.6 ± 0.2 ^a mg								4.9 ± 0.3 ^a mg	3.1 ± 0.3 ^a mg	attenuation of all the vascular and cellular signs of inflammation
COc1ccc2c(c1)c(CC(=O)O)c(C)n2C(=O)c1ccc(Cl)cc1 [indomethacin, reference compound]	104 μg/cm^2		5.2 ± 0.4 ^a mg	3.4 ± 0.3 ^a mg	1.4 ± 0.2 ^a mg		reduced mast cell degranulation and leukocyte infiltration at all observation times						
